Data as given in patent EP0819380A1, “Bacteriocidal, antibacterial and bacteriostatic composition” (priority 1996, dated 1998).
Like-named read-outs stand apart in the source and are kept apart here.

Experiments:
[1] = tested on: herpes simplex I (HSV-1, strain VRIII); assay: Inactivation of herpes simplex I (viral infectivity titer, CPE in Vero cells); type: cell-based; settings: for Viral infectivity titer when contacted for an hour (TCID50/25 µl): room temperature, composition 0.5% butyl p-oxybenzoate
[2] = tested on: influenza virus type B (FluV-B, strain B/Lee/40); type: cell-based
[3] = tested on: mice; settings: p.o.; cited from earlier work
[4] = tested on: Type HIV-1 (LAI strain); assay: Inactivation of HIV (infectivity titer in MT-4 cells); type: cell-based; settings: summary of Table 6, concentration-dependent
[5] = Composition : Viral solution 1 : 4, 1 hour
[6] = Composition : Viral solution 1 : 9, 1 hour
[7] = Composition : Viral solution 1 : 99, 1 hour
[8] = mixing ratio 1:9, Contact Time 0 minute
[9] = mixing ratio 1:9, Contact Time 5 minutes
[10] = mixing ratio 1:9, Contact Time 15 minutes
[11] = mixing ratio 1:9, Contact Time 30 minutes
[12] = mixing ratio 1:9, Contact Time 1 hour

CCO [70% Ethanol, Ethanol, reference compound]
Viral infectivity titer when contacted for an hour (TCID50/25 µl) [1, 5]: 3.2 x 10^4 TCID50/25 µl | Viral infectivity titer when contacted for an hour (TCID50/25 µl) [1, 6]: 5.6 x 10^4 TCID50/25 µl | Viral infectivity titer when contacted for an hour (TCID50/25 µl) [1, 7]: 1.0 x 10^5 TCID50/25 µl | Viral infectivity titer for various contact time periods (TCID50/25 µl) [1, 8]: 3.2 x 10^4 TCID50/25 µl | Viral infectivity titer for various contact time periods (TCID50/25 µl) [1, 9]: 3.2 x 10^4 TCID50/25 µl | Viral infectivity titer for various contact time periods (TCID50/25 µl) [1, 10]: 1.8 x 10^4 TCID50/25 µl | Viral infectivity titer for various contact time periods (TCID50/25 µl) [1, 11]: 1.8 x 10^3 TCID50/25 µl | Viral infectivity titer for various contact time periods (TCID50/25 µl) [1, 12]: 5.6 x 10^4 TCID50/25 µl | Viral infectivity titer for various contact time periods (TCID50/25 µl) ([2]; 0.5 h): 3.2 x 10^3 TCID50/25 µl | Viral infectivity titer for various contact time periods (TCID50/25 µl) ([2]; 1 h): 5.6 x 10^3 TCID50/25 µl | Viral infectivity titer when contacted for an hour (TCID50/25 µl) ([2]; 1 h): 3.2 x 10^3 TCID50/25 µl

CCCCOC(=O)c1ccc(O)cc1 [butyl ester, butyl p-oxybenzoate]
Viral infectivity titer when contacted for an hour (TCID50/25 µl) [1, 5]: ≤3.2 x 10^1 TCID50/25 µl | Viral infectivity titer when contacted for an hour (TCID50/25 µl) [1, 6]: ≤3.2 x 10^0 TCID50/25 µl | Viral infectivity titer when contacted for an hour (TCID50/25 µl) [1, 7]: 1.8 x 10^4 TCID50/25 µl | Viral infectivity titer for various contact time periods (TCID50/25 µl) [1, 8]: 5.6 x 10^3 TCID50/25 µl | Viral infectivity titer for various contact time periods (TCID50/25 µl) [1, 9]: 3.2 x 10^0 TCID50/25 µl | Viral infectivity titer for various contact time periods (TCID50/25 µl) [1, 10]: 3.2 x 10^0 TCID50/25 µl | Viral infectivity titer for various contact time periods (TCID50/25 µl) [1, 11]: 3.2 x 10^0 TCID50/25 µl | Viral infectivity titer for various contact time periods (TCID50/25 µl) [1, 12]: 3.2 x 10^0 TCID50/25 µl | Viral infectivity titer when contacted for an hour (TCID50/25 µl) ([2]; FluV-B, Composition : Viral solution 1 : 99, 1 hour, room temperature, composition 0.5% butyl p-oxybenzoate): 3.2 x 10^3 TCID50/25 µl | Acute toxicity (LD-50) [3]: 17000 mg/kg

CCOC(=O)c1ccc(O)cc1 [ethyl ester, ethyl p-oxybenzoate]
inactivation effect against HIV [4]: potent inactivation effect | Acute toxicity (LD-50) [3]: 5000 mg/kg

CCCOC(=O)c1ccc(O)cc1 [propyl ester, Propyl p-oxybenzoate]
Acute toxicity (LD-50) [3]: 8000 mg/kg
